# Laboratory results from PMC6943629, “Binding of Gold(III) Porphyrin by the Pro-metastatic Regulatory Protein Human Galectin-3” (Molecules, 2019).
# Like-named read-outs stand apart in the source and are kept apart here.
# Tests used:
# Gal3 CRD [1] = molecular target: T1, Gal3 CRD (Homo sapiens, UniProt P17931); test: MST capillary scan, fit to initial fluorescence, Gal3 CRD; format: binding
# T1 construct: The carbohydrate recognition domain (Pro106-Ile250) of human Gal3 (Gal3 CRD); His-tag; made in house; host or cells: Escherichia coli BL21(DE3)
# T1 sequence (P17931 106-250): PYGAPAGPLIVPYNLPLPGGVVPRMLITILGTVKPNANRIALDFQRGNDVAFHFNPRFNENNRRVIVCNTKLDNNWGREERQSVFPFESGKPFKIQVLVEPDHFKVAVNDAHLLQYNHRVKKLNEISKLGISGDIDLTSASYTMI
# Excerpt: (§1) The large and unwanted initial fluorescence changes (Figure 1D) are unlikely to originate from Trp181 near the lactose-binding site of Gal3 CRD, because the MST was run using red fluorescence excitation and emission wavelengths. Also, although Gal3 FL has three tryptophans (Trp22, Trp26 and Trp181) instead of a single one (Trp181) in Gal3 CRD, it appears less affected (Figure 1A versus D). Therefore, there is more likely an involvement of NT-647-NHS-labelled lysine residues near the binding site of Au^3+TTPS. This involvement of labelled lysines enabled the fit based on the initial fluorescence data (Figure 2). […] Therefore, we initiated tryptophan fluorescence spectroscopy measurements (TFS).
# (§2) Microscale thermophoresis (MST) is a technique to quantify biomolecular interactions by measuring the directed movement of molecules in a microscopic temperature gradient induced by an infrared laser. The directed movement of molecules in thin capillaries was detected and quantified by means of a red-light fluorophore (NT-647-NHS, with excitation maximum at 647 nm and emission maximum at 670 nm) covalently linked to Gal3 proteins. […]
# (§3) A two-fold dilution series of ligand concentrations was established ranging from 239 μM to […], with a constant concentration of 4 μM Gal3 FL and 22 μM Gal3 CRD. […] The data were analyzed using the MO Affinity Analysis software v2.2.4.
# Gal3 CRD [2] = molecular target: T1, Gal3 CRD; test: Isothermal titration calorimetry (ITC), Gal3 CRD; format: binding; settings: Gal3 CRD 32.67 μM, also at twice higher concentrations
# Gal3 FL [3] = molecular target: T2, Gal3 FL (Homo sapiens, UniProt P17931); test: MST capillary scan, fit to initial fluorescence, Gal3 FL; format: binding; settings: capillary scan values, time point 0, read-out: KD from fit of initial (before thermophoresis) fluorescence
# T2 construct: Recombinant human galectin-3 (Gal3, 26 kDa, full-length galectin-3 or Gal3 FL); made in house
# T2 sequence (P17931 whole entry): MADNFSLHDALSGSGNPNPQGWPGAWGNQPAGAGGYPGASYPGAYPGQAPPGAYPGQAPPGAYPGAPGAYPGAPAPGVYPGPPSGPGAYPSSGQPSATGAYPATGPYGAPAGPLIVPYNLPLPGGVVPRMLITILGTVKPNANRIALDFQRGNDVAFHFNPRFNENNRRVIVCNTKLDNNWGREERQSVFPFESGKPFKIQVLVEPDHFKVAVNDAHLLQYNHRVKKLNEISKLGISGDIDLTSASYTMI
# Excerpt: as §1, §2, §3
# Gal3 FL [4] = molecular target: T2, Gal3 FL; test: Isothermal titration calorimetry (ITC), Gal3 FL; format: binding; settings: 22 °C
# Excerpt: We used isothermal titration calorimetry (ITC), which is a molecular interaction technique ideal for the reliable determination of stoichiometric ratios in the protein soluble state. […] The reaction is exothermic and enthalpy driven with a heat release of −5363 ± 196.4 cal/mol, indicating a substantial number of non-covalent bonding during complex formation. Moreover, the interaction also profits from a significant entropic contribution of 1956 cal/mol.
# A VP-ITC MicroCal instrument (Malvern Panalytical Ltd, Malvern, UK) with cell volume of 1.4253 mL was used at 22 °C for the measurement of the stoichiometric ratio and the enthalpy/entropy contributions to the binding of gold prophyrin to Gal3 FL. Prior to the experiment, the Gal3 FL protein was dialyzed extensively against 20 mM Hepes at pH 7.4 and 150 mM NaCl, the buffer used for the experiment.
# [5] = molecular target: T3, full-length Gal3 (Gal3 FL) (Homo sapiens, UniProt P17931); test: Microscale thermophoresis (MST), Gal3 FL; format: binding
# T3 construct: Recombinant human galectin-3 (Gal3, 26 kDa, full-length galectin-3 or Gal3 FL); made in house
# T3 sequence (P17931 whole entry): as above
# Excerpt: Microscale thermophoresis (MST) is a very sensitive, immobilization-free interaction technique that is based on the speed of migration away from a central point in the capillary that is hit by an infra-red laser at time 0 (Figure 1).
# Microscale thermophoresis (MST) is a technique to quantify biomolecular interactions by measuring the directed movement of molecules in a microscopic temperature gradient induced by an infrared laser. The directed movement of molecules in thin capillaries was detected and quantified by means of a red-light fluorophore (NT-647-NHS, with excitation maximum at 647 nm and emission maximum at 670 nm) covalently linked to Gal3 proteins. For labelling, we used two times the concentration of the protein (16 μM Gal3 FL, 43 μM Gal3 CRD) for the fluorophore. Removal of excess fluorphore was combined with buffer exchange into 20 mM Hepes, pH 7.4 with 150 mM NaCl and 0.05% Tween-20.
# A two-fold dilution series of ligand concentrations was established ranging from 239 μM to […], with a constant concentration of 4 μM Gal3 FL and 22 μM Gal3 CRD. The samples were loaded into standard glass capillaries and readings were performed with the red light of a Monolith NT.115, with LED power setting of 20% and an MST power setting of 40%. […] The same procedure was repeated for Gal3 CRD and using roscovitine as a ligand. The data were analyzed using the MO Affinity Analysis software v2.2.4.
# Gal3 FL [6] = molecular target: T2, Gal3 FL; test: Tryptophan fluorescence spectroscopy (TFS), Gal3 FL; format: binding; settings: 2 μM Gal3 FL; 25 °C; pH 7.4; read-out: KD (TFS, non-linear regression)
# Excerpt: (§4) The formation of Gal3–Au^3+TTPS complexes can be followed by the changes in the intrinsic or tryptophan fluorescence spectroscopy. Binding of the metal-based drug to Gal3 FL caused a red shift of the maximum emission wavelength of about 9 nm (339 nm to 348 nm), as well as a decrease in fluorescence intensity. This is indicative of indole side chains of Trp residues being exposed on the protein surface. […] The hyperbolic nature of the binding curves of gold porphyrin to of Gal3 FL and Gal3 CRD is indicative of the presence of a single binding site for the ligand.
# (§5) Figure 3 TFS measurements of complex formation with Gal3. […] The data points were plotted as means ± standard error of the mean for three independent experimental data sets.
# (§6) Tryptophan fluorescence spectroscopy (TFS) was performed on a Shimadzu spectrofluorometer (Shimadzu, Kyoto, Japan). […] Total fluorescence was calculated after normalization of the fluorescence spectra and corrected for dilution. In order to account for the inner filter and the self-absorption effects, the experiments were always carried out on samples with absorbance (OD280nm) less than 0.05. Absorbance was measured using a spectrophotometer (Beckman, Brea, CA, USA). All measurements were performed at 25 °C, with the temperature of the samples determined in the cuvette with an accuracy of ± 0.2 °C.
# Gal3 CRD [7] = molecular target: T1, Gal3 CRD; test: Tryptophan fluorescence spectroscopy (TFS), Gal3 CRD; format: binding; settings: 10 μM Gal3 CRD; 25 °C; pH 7.4; read-out: KD (TFS, non-linear regression)
# Excerpt: as §4, §5, §6
# Gal3 = settings: cited from earlier work
# Gal3 CRD [8] = molecular target: T1, Gal3 CRD; parameters: method as in PMID 31094416; settings: ref 46; cited from earlier work
compound,measurement,setting,value
"5,10,15,20-Tetrakis(4-sulfonatophenyl)-porphyrin-Au(III)chloride [Au^3+TPPS]",Kd,"Gal3 CRD [1]; Gal3 CRD, capillary scan values, time point 0, read-out: KD from fit of initial (before thermophoresis) fluorescence",25.9 ± 0.65 µM
same,weaker binding of truncated Gal3 (CRD) versus Gal3 FL,Gal3 CRD [1]; comparison of initial fluorescence fits,at Least 5 fold
same,ITC titration result with Gal3 CRD,Gal3 CRD [2],no measurable results
same,Kd,Gal3 FL [3],5.83 ± 0.65 µM
same,change in Gibbs free energy (ΔG) (ITC),Gal3 FL [4],-7.326 kcal/mol
same,entropic contribution (ITC),Gal3 FL [4],1.956 kcal/mol
same,heat release (enthalpy) (ITC),Gal3 FL [4],-5.363 ± 0.1964 kcal/mol
same,stoichiometry (ITC),Gal3 FL [4],1.02 ± 0.03 sites
same,Kd,"Gal3 FL [4]; 20 mM Hepes pH 7.4, 150 mM NaCl, read-out: equilibrium dissociation constant KD (ITC)",3.78 ± 0.27 µM
same,binding after SDS denaturation of Gal3 FL (SD test),"[5]; Gal3 FL denatured with 4% SDS, 40 mM DTT, 95 °C, same concentration series",without observing binding
same,Kd,"[5]; Gal3 FL labelled with NT-647-NHS, 4 μM Gal3 FL, thermophoresis read-out, read-out: KD (MST curves)",2.84 ± 1.03 µM
same,Kd,Gal3 FL [6],2.6 ± 0.6 µM
same,Kd,Gal3 CRD [7],22.7 ± 5.6 µM
OC[C@H]1O[C@@H](O[C@H]2[C@H](O)[C@@H](O)C(O)O[C@@H]2CO)[C@H](O)[C@@H](O)[C@H]1O (mixture of isomers) [lactose],inhibition of Zn^2+TTPS binding to Gal3,Gal3; ref 42,did not inhibit
CC(=O)N[C@H]1C(O)O[C@H](CO)[C@@H](O[C@@H]2O[C@H](CO)[C@H](O)[C@H](O)[C@H]2O)[C@@H]1O (some centres unmarked) [N-acetyllactosamine],Kd,Gal3; ref 43,25 µM
same,Kd,Gal3; ref 44,28 µM
same,Kd,Gal3; ref 45,112 µM
same,Kd,Gal3; ref 46,118 µM
"CC[C@H](CO)Nc1nc(NCc2ccccc2)c2ncn(C(C)C)c2n1 [roscovitine, reference compound]",affinity between Gal3 FL and ligand (MST),"[5]; Gal3 FL, MST",no affinity
"CD146: cluster of differentiation 146, melanoma cell adhesion molecule, cell surface glycoprotein",affinity for Gal3 CRD,Gal3 CRD [8],unmeasurable
